Assays:
APOL1 G2 [1] = target: T1, APOL1 G2 (Homo sapiens, UniProt O14791, DEL388-389); assay: APOL1 G2 FLIPR calcium influx assay (HEK T-REx/GCaMP6f/APOL1 G2 K6.3 cells); format: cell-based; settings: HEK293 clone expressing GCaMP6f, doxycycline-induced APOL1 G2; prevention of calcium influx; geometric mean of at least 2 assay runs
T1 construct: expressed in transfected cells; host or cells: HEK293/T-REx APOL1 G2 clone #2, doxycycline-inducible
T1 sequence (O14791 with tags, fused parts or gaps DEL388-389): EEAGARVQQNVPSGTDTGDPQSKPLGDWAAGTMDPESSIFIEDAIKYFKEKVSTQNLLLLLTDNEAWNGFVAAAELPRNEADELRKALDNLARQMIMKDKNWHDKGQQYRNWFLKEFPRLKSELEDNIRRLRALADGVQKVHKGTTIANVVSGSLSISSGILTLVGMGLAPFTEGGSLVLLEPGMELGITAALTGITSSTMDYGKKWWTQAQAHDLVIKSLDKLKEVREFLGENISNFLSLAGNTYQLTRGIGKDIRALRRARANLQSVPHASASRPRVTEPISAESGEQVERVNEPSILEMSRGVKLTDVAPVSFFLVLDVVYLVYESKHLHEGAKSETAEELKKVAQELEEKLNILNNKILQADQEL
In short: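 Cells express GCaMP6f stably and APOL1 G2 after a 6 h doxycycline induction. Duplicate 8-point dilutions sit 10 min at room temperature in Ca2+-free Tyrode's (pH 7.4), then Ca2+ is injected to 5 mM final and the FLIPR signal recorded. AC50s are geometric means across ≥2 days.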

APOL1 G2 [2] = target: T1, APOL1 G2; assay: APOL1 G2 HEK293 rescue of cell death caused by overexpression of APOL1 (CellTiter-Glo); format: cell-based; settings: HEK293/T-REx APOL1 G2 clone #2, doxycycline induction, 17 hours, CellTiter-Glo luminescence; reversal of cell death; geometric mean of at least 2 assay runs
In short: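 Viability read by CellTiter-Glo luminescence after 17 h, 37 °C, in HEK293/T-REx cells expressing APOL1 G2 on 6 ng/mL doxycycline, 5,000 cells/well. Compounds tested as duplicate 8-point, 3-fold dilutions, 0.5% DMSO final; four-parameter logistic EC50, usually geometric mean of ≥2 days.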

Row | SMILES | AC50 (APOL1 G2 [1]) | EC50 (APOL1 G2 [2])
1 | CC(=O)N(C)CCS(=O)(=O)c1ccc(OC[C@@H]2CN(CCc3cc(Cl)cc(C#N)c3)C[C@H]2C)cc1 [Compound 75, N-[2-(4-{[(3S,4S)-1-[2-(3-chloro-5-cyanophenyl)ethyl]-4-methylpyrrolidin-3-yl]methoxy}benzenesulfonyl)ethyl]-N-methylacetamide] | 0.419 µM | 0.0706 µM
2 | C[C@@H]1CN(CCc2cc(Cl)cc(C#N)c2)C[C@H]1COc1ccc(C2(S(C)(=O)=O)CC2)cc1 [Compound 77, 3-chloro-5-{2-[(3S,4S)-3-{[4-(1-methanesulfonylcyclopropyl)phenoxy]methyl}-4-methylpyrrolidin-1-yl]ethyl}benzonitrile] | 0.189 µM | 0.176 µM
3 | C[C@@H]1CN(CCc2cc(Cl)cc(C#N)c2)C[C@H]1COc1ccc(C2(S(C)(=O)=O)COC2)cc1 [Compound 78, 3-chloro-5-{2-[(3S,4S)-3-{[4-(3-methanesulfonyloxetan-3-yl)phenoxy]methyl}-4-methylpyrrolidin-1-yl]ethyl}benzonitrile] | 0.114 µM | 0.0258 µM
4 | COC(=O)CCCS(=O)(=O)c1ccc(OC[C@@H]2CN(CCc3cc(Cl)cc(C#N)c3)C[C@H]2C)cc1 [Compound 80, methyl 4-(4-{[(3S,4S)-1-[2-(3-chloro-5-cyanophenyl)ethyl]-4-methylpyrrolidin-3-yl]methoxy}benzenesulfonyl)butanoate] | 0.404 µM | 0.202 µM
5 | C[C@@H]1CN(CCc2cc(Cl)cc(C#N)c2)C[C@H]1COc1cc(F)c(S(C)(=O)=O)c(F)c1 [Compound 82, 3-chloro-5-{2-[(3S,4S)-3-[(3,5-difluoro-4-methanesulfonylphenoxy)methyl]-4-methylpyrrolidin-1-yl]ethyl}benzonitrile] | 0.37 µM | 0.165 µM
6 | C[C@@H]1C[C@H](COc2ccc(S(C)(=O)=O)cc2)CN1C1CCc2c(Cl)cccc2C1 (stereo partly drawn) [Compound 88, (2R,4S)-1-(5-chloro-1,2,3,4-tetrahydronaphthalen-2-yl)-4-[(4-methanesulfonylphenoxy)methyl]-2-methylpyrrolidine] | 0.843 µM | 0.215 µM
7 | CS(=O)(=O)C1(c2ccc(OC[C@@H]3CN(CCc4cccc(Cl)c4)CCN3)cc2)COC1 [Compound 107, (3S)-1-[2-(3-chlorophenyl)ethyl]-3-{[4-(3-methanesulfonyloxetan-3-yl)phenoxy]methyl}piperazine] | < 0.0866 µM | 0.245 µM
8 | CN1CC(S(=O)(=O)c2ccc(OC[C@@H]3CN(CCc4cccc(Cl)c4)CCN3)cc2)C1 [Compound 108, (3S)-1-[2-(3-chlorophenyl)ethyl]-3-({4-[(1-methylazetidin-3-yl)sulfonyl]phenoxy}methyl)piperazine] | 0.337 µM | 0.664 µM
9 | CC(=O)N1CC(S(=O)(=O)c2ccc(OC[C@@H]3CN(CCc4cccc(Cl)c4)CCN3)cc2)C1 [Compound 109, 1-[3-(4-{[(2S)-4-[2-(3-chlorophenyl)ethyl]piperazin-2-yl]methoxy}benzenesulfonyl)azetidin-1-yl]ethan-1-one] | 0.746 µM | 0.224 µM
10 | CS(=O)(=O)C1(c2ccc(OC[C@@H]3CN(CCc4cc(Cl)cc(C#N)c4)CCN3)cc2)CC1 [Compound 110, 3-chloro-5-{2-[(3S)-3-{[4-(1-methanesulfonylcyclopropyl)phenoxy]methyl}piperazin-1-yl]ethyl}benzonitrile] | 0.14 µM | 0.0932 µM
11 | CS(=O)(=O)C1(c2ccc(OC[C@@H]3CN(CCc4cc(Cl)cc(C#N)c4)CCN3)cc2)COC1 [Compound 111, 3-chloro-5-{2-[(3S)-3-{[4-(3-methanesulfonyloxetan-3-yl)phenoxy]methyl}piperazin-1-yl]ethyl}benzonitrile] | < 0.116 µM | 0.137 µM
12 | Cc1cc(OC[C@@H]2CN(CCc3cc(Cl)cc(C#N)c3)CCN2)ccc1S(C)(=O)=O [Compound 112, 3-chloro-5-{2-[(3S)-3-[(4-methanesulfonyl-3-methylphenoxy)methyl]piperazin-1-yl]ethyl}benzonitrile] | 0.409 µM | 0.296 µM
13 | CS(=O)(=O)c1ccc(OC[C@@H]2CN(CCc3cccc(C#N)c3)CCN2)cc1C(F)(F)F [Compound 113, 3-{2-[(3S)-3-{[4-methanesulfonyl-3-(trifluoromethyl)phenoxy]methyl}piperazin-1-yl]ethyl}benzonitrile] | 0.634 µM | 0.726 µM
14 | CS(=O)(=O)c1ccc(OC[C@@H]2CN(CCc3cc(Cl)cc(C#N)c3)CCN2)cc1C(F)(F)F [Compound 114, 3-chloro-5-{2-[(3S)-3-{[4-methanesulfonyl-3-(trifluoromethyl)phenoxy]methyl}piperazin-1-yl]ethyl}benzonitrile] | 0.868 µM | 0.295 µM

Now from value to compound, other results behind:

Row | AC50 (APOL1 G2 [1]) | SMILES | EC50 (APOL1 G2 [2])
15 | 0.492 µM | CN=S(C)(=O)c1ccc(OC[C@@H]2CN(CCc3cccc(C#N)c3)C[C@H]2C)cn1 (stereo partly drawn) [Compound 71, 3-{2-[(3S,4S)-3-methyl-4-[({6-[methyl(methylimino)oxo-λ^6-sulfanyl]pyridin-3-yl}oxy)methyl]pyrrolidin-1-yl]ethyl}benzonitrile] | 0.287 µM
16 | 0.479 µM | C[C@@H]1CN(CCc2cc(C#N)cc(C#N)c2)C[C@H]1COc1ccc(S(C)(=O)=O)nc1 [Compound 74, 5-{2-[(3S,4S)-3-{[(6-methanesulfonylpyridin-3-yl)oxy]methyl}-4-methylpyrrolidin-1-yl]ethyl}benzene-1,3-dicarbonitrile] | 0.665 µM
17 | 0.25 µM | CC(=O)N(C)CCS(=O)(=O)c1ccc(OC[C@@H]2CN(CCc3cccc(C#N)c3)C[C@H]2C)cc1 [Compound 76, N-[2-(4-{[(3S,4S)-1-[2-(3-cyanophenyl)ethyl]-4-methylpyrrolidin-3-yl]methoxy}benzenesulfonyl)ethyl]-N-methylacetamide] | 0.222 µM
18 | 0.0946 µM | Cc1cc(OC[C@@H]2CN(CCc3cccc(C#N)c3)C[C@H]2C)ccc1S(C)(=O)=O [Compound 83, 3-{2-[(3S,4S)-3-[(4-methanesulfonyl-3-methylphenoxy)methyl]-4-methylpyrrolidin-1-yl]ethyl}benzonitrile] | 0.0943 µM
19 | 0.182 µM | Cc1cc(OC[C@@H]2CN(CCc3cc(Cl)cc(C#N)c3)C[C@H]2C)ccc1S(C)(=O)=O [Compound 84, 3-chloro-5-{2-[(3S,4S)-3-[(4-methanesulfonyl-3-methylphenoxy)methyl]-4-methylpyrrolidin-1-yl]ethyl}benzonitrile] | 0.0286 µM
20 | 0.221 µM | C[C@@H]1CN(CCc2cc(Cl)cc(C#N)c2)C[C@H]1COc1ccc(S(C)(=O)=O)nc1 [Compound 85, 3-chloro-5-{2-[(3S,4S)-3-{[(6-methanesulfonylpyridin-3-yl)oxy]methyl}-4-methylpyrrolidin-1-yl]ethyl}benzonitrile] | 0.186 µM
21 | 0.117 µM | C[C@@H]1CN(CCc2cccc(C#N)c2)C[C@H]1COc1ccc(S(C)(=O)=O)c(C#N)c1 [Compound 86, 5-{[(3S,4S)-1-[2-(3-cyanophenyl)ethyl]-4-methylpyrrolidin-3-yl]methoxy}-2-methanesulfonylbenzonitrile] | 0.0204 µM
22 | 0.7 µM | C[C@@H]1CN(CC(O)c2cccc(C#N)c2)C[C@H]1COc1ccc(S(C)(=O)=O)nc1 (stereo partly drawn) [Compound 104, 3-{1-hydroxy-2-[(3S,4S)-3-{[(6-methanesulfonylpyridin-3-yl)oxy]methyl}-4-methylpyrrolidin-1-yl]ethyl}benzonitrile] | 1.01 µM

— patent US20260055083A1, “APOL1 INHIBITORS AND METHODS OF USE” (Maze Therapeutics, Inc., priority 2022, published 2026)
